Measurements reported in ChEMBL document CHEMBL5113452, “Synthesis and biological evaluation of hybrids from optically active ring-opened 3-N-butylphthalide derivatives and 4-fluro-edaravone as potential anti-acute ischemic stroke agents” (Bioorg Med Chem, 2022).
Activity calls are given as the source filed them. No cut-off for these calls is given here.

What was measured:
[1] = Prodrug conversion in Sprague-Dawley rat plasma assessed as MRT of metabolite 4-F-Eda at 10 mg/kg, iv and measured upto 24 hrs by LC-MS/MS analysis; type: ADME, organism-based; settings: in vivo
[2] = Prodrug conversion in Sprague-Dawley rat plasma assessed as AUC (0-infinity) of metabolite S-NBP at 10 mg/kg, iv and measured upto 24 hrs by LC-MS/MS analysis; type: ADME, organism-based; set-up: dose 10 mg/kg, time < 24 hrs, route iv; settings: in vivo
[3] = Prodrug conversion in Sprague-Dawley rat plasma assessed as volume of distribution at steady state of metabolite S-NBP at 10 mg/kg, iv and measured upto 24 hrs by LC-MS/MS analysis; type: ADME, organism-based; settings: in vivo
[4] = Prodrug conversion in Sprague-Dawley rat plasma assessed as AUC (0-t) of metabolite S-NBP at 10 mg/kg, iv and measured upto 24 hrs by LC-MS/MS analysis; type: ADME, organism-based; set-up: time < 24 hrs, dose 10 mg/kg, route iv; settings: in vivo
[5] = Toxicity in transient middle cerebral artery occlusion induced ischemia stroke Sprague-Dawley rat model assessed as change in body weight at 10 mg/kg, iv and measured after 24 hrs; type: organism-based; settings: in vivo
[6] = Prodrug conversion in Sprague-Dawley rat plasma assessed as Cmax of metabolite S-NBP at 10 mg/kg, iv and measured upto 24 hrs by LC-MS/MS analysis; type: ADME, organism-based; set-up: time < 24 hrs, dose 10 mg/kg, route iv; settings: in vivo
[7] = Prodrug conversion in Sprague-Dawley rat plasma assessed as AUMC (0-infinity) of metabolite 4-F-Eda at 10 mg/kg, iv and measured upto 24 hrs by LC-MS/MS analysis; type: ADME, organism-based; settings: in vivo
[8] = Prodrug conversion in Sprague-Dawley rat plasma assessed as elimination rate constant of metabolite S-NBP at 10 mg/kg, iv and measured upto 24 hrs by LC-MS/MS analysis; type: ADME, organism-based; settings: in vivo
[9] = Metabolic stability in rat plasma assessed as half life at 200 uM and measured upto 24 hrs by HPLC analysis; type: ADME, cell-free
[10] = Metabolic stability in rat liver microsomes assessed as half life at 20 mM and measured upto 120 mins by HPLC analysis; type: ADME, Microsome
[11] = Prodrug conversion in Sprague-Dawley rat plasma assessed as AUMC (0-infinity) of metabolite S-NBP at 10 mg/kg, iv and measured upto 24 hrs by LC-MS/MS analysis; type: ADME, organism-based; settings: in vivo
[12] = Prodrug conversion in Sprague-Dawley rat plasma assessed as AUMC (0-t) of metabolite 4-F-Eda at 10 mg/kg, iv and measured upto 24 hrs by LC-MS/MS analysis; type: ADME, organism-based; settings: in vivo
[13] = Prodrug conversion in Sprague-Dawley rat plasma assessed as S-NBP metabolite formation at 10 mg/kg, iv and measured upto 24 hrs by LC-MS/MS analysis; type: ADME, organism-based; settings: in vivo
[14] = Prodrug conversion in Sprague-Dawley rat plasma assessed as half life of metabolite 4-F-Eda at 10 mg/kg, iv and measured upto 24 hrs by LC-MS/MS analysis; type: ADME, organism-based; settings: in vivo
[15] = Prodrug conversion in Sprague-Dawley rat plasma assessed as volume of distribution at steady state of metabolite 4-F-Eda at 10 mg/kg, iv and measured upto 24 hrs by LC-MS/MS analysis; type: ADME, organism-based; settings: in vivo
[16] = tested on: Rattus norvegicus; assay: Neuroprotective activity against transient middle cerebral artery occlusion induced ischemia stroke Sprague-Dawley rat model assessed as increase in neuro-fucntional score at 10 mg/kg, iv and measured after 24 hrs by longa's method; type: functional, organism-based
[17] = Prodrug conversion in Sprague-Dawley rat plasma assessed as C0 of metabolite 4-F-Eda at 10 mg/kg, iv and measured upto 24 hrs by LC-MS/MS analysis; type: ADME, organism-based; settings: in vivo
[18] = Prodrug conversion in Sprague-Dawley rat plasma assessed as AUC (0-t) of metabolite 4-F-Eda at 10 mg/kg, iv and measured upto 24 hrs by LC-MS/MS analysis; type: ADME, organism-based; set-up: dose 10 mg/kg, time < 24 hrs, route iv; settings: in vivo
[19] = Prodrug conversion in Sprague-Dawley rat plasma assessed as Cmax of metabolite 4-F-Eda at 10 mg/kg, iv and measured upto 24 hrs by LC-MS/MS analysis; type: ADME, organism-based; set-up: time < 24 hrs, dose 10 mg/kg, route iv; settings: in vivo
[20] = tested on: Rattus norvegicus; assay: Neuroprotective activity against transient middle cerebral artery occlusion induced cerebral infraction Sprague-Dawley rat model assessed as decrease in brain edema at 10 mg/kg, iv and measured after 24 hrs; type: functional; set-up: scale not given: the % may be the effect or the level left
[21] = tested on: Rattus norvegicus; assay: Neuroprotective activity against transient middle cerebral artery occlusion induced cerebral infraction Sprague-Dawley rat model assessed as decrease in cerebral infraction volume at 10 mg/kg, iv and measured after 24 hrs by TTC staining based assay; type: functional; set-up: scale not given: the % may be the effect or the level left
[22] = Prodrug conversion in Sprague-Dawley rat plasma assessed as elimination rate constant of metabolite 4-F-Eda at 10 mg/kg, iv and measured upto 24 hrs by LC-MS/MS analysis; type: ADME, organism-based; settings: in vivo
[23] = Prodrug conversion in Sprague-Dawley rat plasma assessed as AUMC (0-t) of metabolite S-NBP at 10 mg/kg, iv and measured upto 24 hrs by LC-MS/MS analysis; type: ADME, organism-based; settings: in vivo
[24] = Prodrug conversion in Sprague-Dawley rat plasma assessed as C0 of metabolite S-NBP at 10 mg/kg, iv and measured upto 24 hrs by LC-MS/MS analysis; type: ADME, organism-based; settings: in vivo
[25] = Prodrug conversion in Sprague-Dawley rat plasma assessed as 4-F-Eda metabolite formation at 10 mg/kg, iv and measured upto 24 hrs by LC-MS/MS analysis; type: ADME, organism-based; settings: in vivo
[26] = Prodrug conversion in Sprague-Dawley rat plasma assessed as MRT of metabolite S-NBP at 10 mg/kg, iv and measured upto 24 hrs by LC-MS/MS analysis; type: ADME, organism-based; settings: in vivo
[27] = Prodrug conversion in Sprague-Dawley rat plasma assessed as half life of metabolite S-NBP at 10 mg/kg, iv and measured upto 24 hrs by LC-MS/MS analysis; type: ADME, organism-based; settings: in vivo
[28] = Prodrug conversion in Sprague-Dawley rat plasma assessed as AUC (0-infinity) of metabolite 4-F-Eda at 10 mg/kg, iv and measured upto 24 hrs by LC-MS/MS analysis; type: ADME, organism-based; set-up: dose 10 mg/kg, time < 24 hrs, route iv; settings: in vivo

**Q.** With `CCCC[C@H](OC(C)=O)c1ccccc1C(=O)Oc1cc(C)nn1-c1ccc(F)cc1` as the compound, how does the MRT [1] read?
**A.** The MRT was 1.77 h.

**Q.** What about the AUC [2] of the same compound?
**A.** Its AUC is 2819 ng·h/mL.

**Q.** What about the Vdss [3] of the same compound?
**A.** Its Vdss is 16.1 L/kg.

**Q.** And the AUCt [4]?
**A.** Its AUCt is 2740 ng·h/mL.

**Q.** And the Activity [5]?
**A.** The Activity was “Non-Toxic”.

**Q.** And the Cmax [6]?
**A.** Its Cmax is 3242 ng/mL.

**Q.** What about the AUMC [7] of the same compound?
**A.** Its AUMC is 5109 hr.hr.ng/ml.

**Q.** And the Kel [8]?
**A.** The Kel was 0.123 h⁻¹.

**Q.** What about the half-life at 200 µM [9] of the same compound?
**A.** Its half-life at 200 µM is 17 h.

**Q.** And the half-life [10]?
**A.** Its half-life is 0.833 h.

**Q.** And the AUMC [11]?
**A.** The AUMC was 12474 hr.hr.ng/ml.

**Q.** And the AUMCt [12]?
**A.** The AUMCt was 4095 hr.hr.ng/ml.

**Q.** And the Drug metabolism [13]?
**A.** The Drug metabolism was “Metabolite_Detected”.

**Q.** And the t1/2 [14]?
**A.** The t1/2 was 5.11 h.

**Q.** What about the Vdss [15] of the same compound?
**A.** The Vdss was 6.18 L/kg.

**Q.** And the Activity [16]?
**A.** The Activity was “Active”.

**Q.** What about the C0 [17] of the same compound?
**A.** Its C0 is 8328 ng/mL.

**Q.** And the AUCt [18]?
**A.** Its AUCt is 2958 ng·h/mL.

**Q.** And the Cmax [19]?
**A.** The Cmax was 5569 ng/mL.

**Q.** And the Activity [20]?
**A.** The Activity was 13.96%.

**Q.** And the Activity [21]?
**A.** Its Activity is 77.85%.

**Q.** What about the Kel [22] of the same compound?
**A.** Its Kel is 0.143 h⁻¹.

**Q.** What about the AUMCt [23] of the same compound?
**A.** The AUMCt was 9914 hr.hr.ng/ml.

**Q.** What about the C0 [24] of the same compound?
**A.** Its C0 is 4653 ng/mL.

**Q.** And the Drug metabolism [25]?
**A.** The Drug metabolism was “Metabolite_Detected”.

**Q.** And the MRT [26]?
**A.** Its MRT is 4.45 h.

**Q.** And the t1/2 [27]?
**A.** Its t1/2 is 5.69 h.

**Q.** And the AUC [28]?
**A.** Its AUC is 2990 ng·h/mL.
